Test results: ChEMBL document CHEMBL1201862, “PubChem BioAssay data set” (2004)
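Grown in 96-well plates, cells were treated for 48 hours with each compound at five concentrations. Insufficient inhibition: endpoint recorded as highest concentration tested. GI50 marks 50% less growth.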 Active and inactive are the calls of the source. Cut-off read from the data, not from the text of the source: active = GI50 up to about 1.1 µM and inactive = higher.

Legend:
Test in all cases: NCI anticancer screen, dose series, 48 h
RPMI-8226 = system: RPMI-8226
786-0 = system: 786-0
SF-295 = system: SF-295
UACC-257 = system: UACC-257
LOX IMVI = system: LOX IMVI
SF-268 = system: SF-268
K562 = system: K562
SK-MEL-28 = system: SK-MEL-28
HT-29 = system: HT-29
OVCAR-3 = system: OVCAR-3
HOP-62 = system: HOP-62
UO-31 = system: UO-31
HCC 2998 = system: HCC 2998
A498 = system: A498
Malme-3M = system: Malme-3M
OVCAR-4 = system: OVCAR-4
SR = system: SR
HCT-15 = system: HCT-15
SF-539 = system: SF-539

Structure (SMILES) | GI50 (RPMI-8226) | GI50 (786-0) | GI50 (SF-295) | GI50 (UACC-257) | GI50 (LOX IMVI) | GI50 (SF-268) | GI50 (K562) | GI50 (SK-MEL-28) | GI50 (HT-29) | GI50 (OVCAR-3) | GI50 (HOP-62) | GI50 (UO-31) | GI50 (HCC 2998) | GI50 (A498) | GI50 (Malme-3M) | GI50 (OVCAR-4) | GI50 (SR) | GI50 (HCT-15) [µM] | GI50 (SF-539)
Cc1cc(OCC(=O)O)c(Cl)cc1Cl | 81.3 µM (inactive) | > 100 µM (inactive) | > 100 µM (inactive) | > 100 µM (inactive) | > 100 µM (inactive) | > 100 µM (inactive) | > 100 µM (inactive) | > 100 µM (inactive) | > 100 µM (inactive) | > 100 µM (inactive) | > 100 µM (inactive) | > 100 µM (inactive) | > 100 µM (inactive) | > 100 µM (inactive) | > 100 µM (inactive) | > 100 µM (inactive) | > 100 µM (inactive) | > 100 | 
COc1cc(C2SCC(=O)N2c2ccc(Oc3ccc(Cl)cc3)c(Cl)c2)cc(OC)c1OC (configuration not stated) | 29.4 µM (inactive) | 18.3 µM (inactive) | 16.4 µM (inactive) | 18.1 µM (inactive) | 17.9 µM (inactive) | 17.2 µM (inactive) | 33.4 µM (inactive) | 16.6 µM (inactive) | 16.3 µM (inactive) | 17.1 µM (inactive) | 20.4 µM (inactive) | 17.6 µM (inactive) | 40 µM (inactive) |  | 19.8 µM (inactive) | 42.7 µM (inactive) | 22 µM (inactive) | 26.2 | 22.8 µM (inactive)
CCCCCCCC(CC(=O)NC(CO)C(=O)NC(CO)CC(C)C)OC(=O)CC(CCCCCCC)OC(=O)CC(CCCCCCC)OC1OC(C)C(O)C(OC2OC(C)C(O)C(OC(C)=O)C2O)C1O (configuration not stated) |  | 13.4 µM (inactive) | 15.8 µM (inactive) | 5.77 µM (inactive) |  | 12 µM (inactive) | 12.4 µM (inactive) | 12.2 µM (inactive) | 7.8 µM (inactive) | 10.7 µM (inactive) | 12.2 µM (inactive) | 14.9 µM (inactive) | 11.2 µM (inactive) | 13.2 µM (inactive) | 16 µM (inactive) | 12.8 µM (inactive) | 3.27 µM (inactive) |  | 12.1 µM (inactive)
O=C1c2cccc3cc([N+](=O)[O-])cc(c23)C(=O)N1c1ccc(OCCN2CCCC2)cc1 |  | 10.6 µM (inactive) | 20.8 µM (inactive) | 16.8 µM (inactive) | 10.8 µM (inactive) | 22 µM (inactive) |  | 23 µM (inactive) | 11.7 µM (inactive) |  | 30.5 µM (inactive) | 13.6 µM (inactive) | 17.1 µM (inactive) | 12.4 µM (inactive) | 15 µM (inactive) | 28.1 µM (inactive) | 2.23 µM (inactive) | 14.2 | 13.3 µM (inactive)
O=C(O)CC(NC(=O)/C(=C/c1ccccc1O)NC(=O)c1ccccc1)C(=O)O (configuration not stated) | 82.6 µM (inactive) | > 100 µM (inactive) | > 100 µM (inactive) | > 100 µM (inactive) | > 100 µM (inactive) |  | 74.1 µM (inactive) | > 100 µM (inactive) | 80.7 µM (inactive) | > 100 µM (inactive) | > 100 µM (inactive) | 43.4 µM (inactive) | > 100 µM (inactive) | 50.5 µM (inactive) | 61.7 µM (inactive) | > 100 µM (inactive) | 29.8 µM (inactive) | 59.4 | > 100 µM (inactive)
O=C1Cc2c([nH]c3ccccc23)C2(CC3CCCCN13)OCCO2 (configuration not stated) | > 100 µM (inactive) | > 100 µM (inactive) | > 100 µM (inactive) | > 100 µM (inactive) |  | > 100 µM (inactive) |  | > 100 µM (inactive) | > 100 µM (inactive) | > 100 µM (inactive) | > 100 µM (inactive) | > 100 µM (inactive) | 90.6 µM (inactive) | > 100 µM (inactive) | 62.2 µM (inactive) | > 100 µM (inactive) | > 100 µM (inactive) | > 100 | 
COc1cc2c(c(OC)c1OC)C(=O)[C@H]1OC(=O)N[C@@H]21 | > 100 µM (inactive) | > 100 µM (inactive) | > 100 µM (inactive) | > 100 µM (inactive) | > 100 µM (inactive) | > 100 µM (inactive) | > 100 µM (inactive) | > 100 µM (inactive) | > 100 µM (inactive) | > 100 µM (inactive) | > 100 µM (inactive) | > 100 µM (inactive) | > 100 µM (inactive) | > 100 µM (inactive) |  | > 100 µM (inactive) | > 100 µM (inactive) | > 100 | > 100 µM (inactive)
CC(=O)c1c2c(cc3c1CC1(C3)Cc3cc4c(c(C(=O)O)c3C1)CCCC4)CCCC2.CC(N)c1ccccc1 (configuration not stated) | 31.6 µM (inactive) | 34.4 µM (inactive) | 33.7 µM (inactive) | 30.9 µM (inactive) | 35.5 µM (inactive) | 38.7 µM (inactive) | 36.4 µM (inactive) | 33.4 µM (inactive) | 34.1 µM (inactive) | 23.6 µM (inactive) | 21.6 µM (inactive) | 18.6 µM (inactive) | 34.5 µM (inactive) |  | 33.4 µM (inactive) | 37 µM (inactive) | 20.3 µM (inactive) | 33.7 | 
